According to patent US20220381657A1, “METHOD FOR PREPARING BIOLOGICAL MATERIAL HAVING EXCELLENT LIGHT-TRANSMITTING PROPERTY” (RIKEN, priority 2016, published 2022):
Where a name gives a salt, the structure may show the parent alone. Read-outs that look alike come from different tables or passages of the source.

Tests used:
[1] = Refractive index of high-concentration aqueous solution; type: physicochemical
Excerpt: The refractive index of an aqueous solution is commonly known to increase in a solute concentration-dependent manner, and the refractive index of a reagent per unit weight of the reagent varies among individual reagents. Accordingly, two properties are required in order to prepare a high refractive index aqueous solution: (1) an extremely high water-solubility and (2) a […] which allows achieving a high refractive index in a low-concentration aqueous solution.

[2] = for 400 nm: OD at 400 nm of the chemical
[3] = target: EGFP (Aequorea victoria, UniProt P42212, F64L/H231L/S65T); type: biochemical; conditions: for 2nd quenching assay EGFP fluorescence: Table 3; for retention of fluorescence of a fluorescent protein: stated in the description
Experimental: (FIG. 7). […] A mouse hemisphere was treated with use of each 10 wt % chemical solution at 37° C. for 3 days, and was washed with PBS. Subsequently, the mouse hemisphere was subjected to refractive index adjustment with CUBIC-2A.

[4] = system: bovine coagulated blood; assay: Decoloring screening: heme eluted from bovine coagulated blood (OD420-OD700); conditions: decolorization; for 700 nm calibrated 420 nm Average: OD420 calibrated by OD700; for integrated value 500-700 nm Average: integrated absorbance 500-700 nm
Experimental: A high-throughput screening system for evaluating the decoloring ability of various compounds was constructed. The screening system involved adding an aqueous solution of each compound to bovine coagulated blood and then measuring the absorbance of heme collected in the supernatant.
Specifically, to bovine blood, an equal amount of 8% PFA solution was added, and reacted at 4° C. overnight. The mixed liquid was centrifuged at 1500×g for 5 minutes, and the supernatant containing PFA was discarded. Then, the same amount of PBS as the original volume of blood was added to prepare a coagulated blood sample. To 150 μL of 10 wt % aqueous solution of each compound, 50 μL of the coagulated blood sample was added, and reacted at 37° C. overnight. The reaction solution was centrifuged at 1500×g for 5 minutes, and then 100 μL of the supernatant was added to a plate so as to be subjected to absorbance measurement. A sample which is suspended in water instead of being dissolved in the water has a weak decoloring effect, but none the less has a high absorbance value. […]

[5] = system: Serius
[6] = system: fixed brain tissue suspension; assay: 1st delipidation assay: solubilization of fixed brain tissue suspension, turbidity at 600 nm; set-up: species or system mice; conditions: Table 1; 10 wt % chemical, fixed mouse brain suspension, 37° C. overnight; PBS = 1.000
Experimental: Specifically, brains taken out of mice were sheared with a utility knife and then were disrupted by ultrasonication. To each of the resultant suspensions, an equal volume of 8% PFA solution was added to perform fixation at 4° C. for 1 hour. The resultant mixture was centrifuged to remove the supernatant, and the fixed brain tissue was washed with PBS for 3 times. PBS was added so as to obtain 2 mL of a fixed brain tissue suspension per brain. The fixed brain tissue suspension was diluted by 3.5 folds. To 20 μL of the resultant suspension, 130 μL of each 10 wt % chemical was added and was shaken at 37° C. overnight. Thus obtained mixed solutions were subjected to absorbance (turbidity) measurement at 600 nm. It is expected that a chemical solution which reduces the turbidity of a fixed brain suspension allows reducing light scattering by solubilizing lipids, which act as a scattering factor, in the brain tissue.

[7] = Table 3, chemical conc. 70 wt %
[8] = Table 3, chemical conc. 80 wt %

Compound: CNCC(O)c1cccc(O)c1.Cl (racemic) [#1142, DL- Phenylephrine hydrochloride]
- RI [1]: 1.4954

Compound: CN(C)CCSSCCN(C)C [#0299, Bis(2-dimethyl-aminoethyl) disulfide dihydrochloride]
- RI [1, 7]: 1.4937

Compound: CCCC[N+](CCCC)(CCCC)Cc1ccccc1.[Cl-] [#0307, Benzyltributyl- ammonium chloride]
- RI [1, 8]: 1.4939

Compound: CCCC[n+]1ccccc1.[Br-] [#0315, 1-Butyl-pyridinium bromide]
- RI ([1]; Table 3, chemical conc. 85 wt %): 1.5090
- OD400 ([2]; Table 3): 0.048
- pH (Table 3): 5.6

Compound: NCCN1CCNCC1 [#0338, N-(2-Aminoethyl) piperazine]
- RI ([1]; Table 3, chemical conc. 75 wt %): 1.4794
- OD400 ([2]; Table 3): 0.062
- pH (Table 3): 12.4

Compound: OCCNCc1ccccc1 [#0389, N-Benzyl- ethanolamine]
- 2nd quenching assay EGFP fluorescence [3]: quench free
- retention of fluorescence of a fluorescent protein [3]: allowing retention of fluorescence of a fluorescent protein
- 700 nm calibrated 420 nm Average [4]: 2.73
- integrated value 500-700 nm Average [4]: 2.42
- RI [1, 7]: 1.4814
- Fluorescence quench Average ([5]; relative fluorescence): 0.57
- 400 nm [2]: 0.063
- OD400 ([2]; Table 3): 0.063
- pH (Table 3): 10.9
- pH ([…]): 10.9

Compound: CCCC[n+]1ccccc1.[Cl-] [#0415, 1-Butyl-pyridinium chloride]
- RI ([1]; Table 3, chemical conc. 90 wt %): 1.4824
- OD400 ([2]; Table 3): 0.055
- pH (Table 3): 5.5

Compound: C[N+](C)(Cc1ccccc1)c1ccccc1.[Cl-] [#0450, Benzyl- dimethyl- phenyl- ammonium chloride]
- 2nd quenching assay EGFP fluorescence [3]: quench free
- retention of fluorescence of a fluorescent protein [3]: allowing retention of fluorescence of a fluorescent protein
- RI [1, 7]: 1.5002
- OD400 ([2]; Table 3): 0.052
- pH (Table 3): 6.7

Compound: NCCCn1ccnc1 [#0484, 1-(3-aminopropyl)imidazole]
- retention of fluorescence of a fluorescent protein [3]: allows fluorescence of a fluorescent protein to be retained
- 700 nm calibrated 420 nm Average [4]: 4.81
- integrated value 500-700 nm Average [4]: 2.64
- Fluorescence quench Average ([5]; relative fluorescence): 0.72
- 400 nm [2]: 0.05
- pH ([…]): 12.9

Compound: CCN(CC)C(=O)c1cccnc1 [#0609, N,N-Diethyl- nicotinamide]
- RI [1, 8]: 1.4928
- OD400 ([2]; Table 3): 0.056
- pH (Table 3): 6.4

Compound: CCCCCCCCCCCC[n+]1ccccc1.[Cl-] [#0635, 1-Dodecylpyridinium chloride]
- retention of fluorescence of a fluorescent protein [3]: allows fluorescence of a fluorescent protein to be retained
- 700 nm calibrated 420 nm Average [4]: 3.86
- integrated value 500-700 nm Average [4]: 3.57
- Fluorescence quench Average ([5]; relative fluorescence): 1.04
- 400 nm [2]: 0.053
- OD400 ([2]; Table 1): 0.053
- pH (Table 1): 8.9
- pH ([…]): 8.9

Compound: Cc1cc(=O)n(-c2ccccc2)n1C [#0640, 2,3-Dimethyl-1-phenyl-5-pyrazolone]
- 2nd quenching assay EGFP fluorescence [3]: quench free
- retention of fluorescence of a fluorescent protein [3]: allowing retention of fluorescence of a fluorescent protein
- 700 nm calibrated 420 nm Average [4]: 1.22
- integrated value 500-700 nm Average [4]: 0.93
- RI [1]: 1.4966
- Fluorescence quench Average [5]: 0.84

Compound: NCCCNCCCN [#0785, 3,3′-Diamino-dipropylamine]
- 700 nm calibrated 420 nm Average [4]: 2.09
- integrated value 500-700 nm Average [4]: 1.48
- RI ([1]; Table 3, chemical conc. 100 wt %): 1.4895
- Fluorescence quench Average [5]: 0.62

Compound: CN(C)C(=O)c1ccccc1 [#0788, N,N- Dimethyl- benzamide]
- 2nd quenching assay EGFP fluorescence [3]: quench free
- retention of fluorescence of a fluorescent protein [3]: allowing retention of fluorescence of a fluorescent protein
- 700 nm calibrated 420 nm Average [4]: 1.26
- integrated value 500-700 nm Average [4]: 1.08
- RI [1, 7]: 1.4833
- Fluorescence quench Average ([5]; relative fluorescence): 0.76
- 400 nm [2]: 0.049
- OD400 ([2]; Table 3): 0.049
- pH (Table 3): 10.7
- pH ([…]): 10.7

Compound: CN(C)CCOC(c1ccccc1)c1ccccc1.Cl [#0809, Diphen- hydramine hydrochloride]
- RI [1, 7]: 1.4990

Compound: CN(C)CCSC(=N)N [#0830, S-[2-(Dimethyl-amino)ethyl] isothiourea-dihydrochloride]
- RI [1, 7]: 1.5021
- OD400 ([2]; Table 3): 0.047
- pH (Table 3): 5.4

Compound: CN(C)C(=O)Oc1cccc([N+](C)(C)C)c1 [#0864, Neostigmine bromide]
- 2nd quenching assay EGFP fluorescence [3]: quench free
- retention of fluorescence of a fluorescent protein [3]: allowing retention of fluorescence of a fluorescent protein
- RI [1, 7]: 1.4830

Compound: Cc1cccc(C)n1 [#1008, 2,6-Lutidine]
- 1st delipidation assay Relative OD600 [6]: 0.314
- 700 nm calibrated 420 nm Average [4]: 2.00
- integrated value 500-700 nm Average [4]: 2.16
- Fluorescence quench Average ([5]; relative fluorescence): 0.71
- 400 nm [2]: 0.063
- OD400 ([2]; Table 1): 0.063
- pH (Table 1): 9.9
- pH ([…]): 9.9

Compound: CC(C)NCCCN [#1027, N-Isopropyl-1,3-diaminopropane]
- 1st delipidation assay Relative OD600 [6]: 0.219
- 700 nm calibrated 420 nm Average [4]: 1.52
- integrated value 500-700 nm Average [4]: 1.24
- Fluorescence quench Average ([5]; relative fluorescence): 0.55
- 400 nm [2]: 0.061
- OD400 ([2]; Table 1): 0.061
- pH (Table 1): 13.4
- pH ([…]): 13.4

Compound: [O-][n+]1ccccc1 [#1078, Pyridine N- oxide]
- RI ([1]; Table 3, chemical conc. 60 wt %): 1.4795
- OD400 ([2]; Table 3): 0.054
- pH (Table 3): 6.1

Compound: NCc1cccnc1 [#1102, 3-Picolylamine]
- 700 nm calibrated 420 nm Average [4]: 2.46
- integrated value 500-700 nm Average [4]: 1.32
- RI [1, 7]: 1.4895
- Fluorescence quench Average ([5]; relative fluorescence): 0.77
- 400 nm [2]: 0.056
- OD400 ([2]; Table 3): 0.056
- pH (Table 3): 11.6
- pH ([…]): 11.6

Compound: Cc1cccc[n+]1[O-] [#1140, 2-Methyl-pyridine N-oxide]
- RI [1, 7]: 1.4919
- OD400 ([2]; Table 3): 0.049
- pH (Table 3): 6.2

Compound: Cc1cc[n+]([O-])cc1 [#1145, 4- Methylpyridine N-oxide]
- RI [1, 7]: 1.5073
- OD400 ([2]; Table 3): 0.059
- pH (Table 3): 7.3

Compound: Cc1ccnc(C)c1 [#1312, 2,4-Lutidine]
- 1st delipidation assay Relative OD600 [6]: 0.325
- 700 nm calibrated 420 nm Average [4]: 2.47
- integrated value 500-700 nm Average [4]: 2.59
- Fluorescence quench Average ([5]; relative fluorescence): 0.84
- 400 nm [2]: 0.051
- OD400 ([2]; Table 1): 0.051
- pH (Table 1): 7.6
- pH ([…]): 7.6

Compound: Cc1ccc(C(=O)C(C)CN2CCCCC2)cc1.Cl (stereo not shown) [#1392, Tolperisone hydrochloride]
- RI [1, 7]: 1.4939
- OD400 ([2]; Table 3): 0.056
- pH (Table 3): 5.2

Compound: CN(C)C(=N)N(C)C [#1444, 1,1,3,3-Tetramethylguanidine]
- 1st delipidation assay Relative OD600 [6]: 0.124
- 700 nm calibrated 420 nm Average [4]: 1.38
- integrated value 500-700 nm Average [4]: 1.15
- Fluorescence quench Average ([5]; relative fluorescence): 0.14
- 400 nm [2]: 0.072
- OD400 ([2]; Table 1): 0.072
- pH (Table 1): 12.4
- pH ([…]): 12.4

Compound: CC1(C)CC(N)CC(C)(CN)C1 (stereo not shown) [#1602, Isophoronediamine]
- 1st delipidation assay Relative OD600 [6]: 0.190
- 700 nm calibrated 420 nm Average [4]: 2.08
- integrated value 500-700 nm Average [4]: 1.26
- Fluorescence quench Average ([5]; relative fluorescence): 0.53
- 400 nm [2]: 0.051
- OD400 ([2]; Table 1): 0.051
- pH (Table 1): 10.8
- pH ([…]): 10.8

Compound: Cc1cccc(C)c1NC1=NCCCS1.Cl [#1612, Xylazine hydrochloride]
- RI [1, 7]: 1.4956

Compound: Decyldimethyl(3- sulfopropyl)ammonium [#0651]
- retention of fluorescence of a fluorescent protein [3]: allows fluorescence of a fluorescent protein to be retained
- 700 nm calibrated 420 nm Average [4]: 3.73
- integrated value 500-700 nm Average [4]: 3.28
- Fluorescence quench Average ([5]; relative fluorescence): 0.97
- 400 nm [2]: 0.048
- OD400 ([2]; Table 1): 0.048
- pH (Table 1): 7.5
- pH ([…]): 7.5

Compound: Tween ® 40 [#1455]
- 1st delipidation assay Relative OD600 [6]: 0.073
- 700 nm calibrated 420 nm Average [4]: 1.38
- integrated value 500-700 nm Average [4]: 1.21
- Fluorescence quench Average ([5]; relative fluorescence): 0.64
- 400 nm [2]: 0.083
- OD400 ([2]; Table 1): 0.083
- pH (Table 1): 6.4
- pH ([…]): 6.4
